Measurements from patent US20260109721A1, “IONIZABLE CATIONIC LIPIDS INCORPORATING SILICON: SYNTHESIS AND LNP FORMULATION” (priority 2023, published 2026).

Experiments:
[1] = LNP size, PDI and zeta potential by Dynamic Light Scattering (Method A); format: physicochemical; conditions: LNP formulated with the lipid, DLS
Description: (§1) The synthesized lipids were tested in term of in vitro transfection efficacy and toxicity on HeLa cells. In order to perform the mentioned biological tests, appropriate LNPs had to be formulated from the synthesized lipids. The formulation technique was different in Method A and B. The particle size, polydispersity index (PDI) and zeta potential of resulting LNPs were determined by means of Dynamic Light Scattering technique (DLS). Prior to biological testing the encapsulation efficiency (EE) of the loaded LNPs was determined by using RiboGreen RNA assay. In case of Method A Luc mRNA while in case of Method B GFP mRNA was transfected into the cells. In parallel with the transfection experiments, toxicity of the investigated LNPs was determined, in case of Method A resazurin assay while in case of Method B MTT assay was used. Additionally, the toxicity of the lipids was investigated on HepG2 cells and IC50 values were determined.
• 1. If needed, prepare stock solutions by solving known amounts of lipid powder into an appropriate solvent. The recommended solvent is ethanol and the recommended concentration is typically in the range 10-50 mM. Higher concentrations are preferred to allow flexibility on mRNA-LNP concentration. • 2. Remove the lipid stock solutions from the −20° C. freezer. For long-term storage, −80° C. is used. • 3. Check the vials for precipitation, DOPE (CAS #4004-05-1) (20 mM) and DSPE-PEG (CAS #474922-26-4) (5 mM) may need a 5-30 minute incubation step at 37° C. with intermittent vortexing to resuspend all contents. […] As a last resort, lipids may be heated to 50° C. to resuspend, time should be kept as short as possible to prevent oxidation or other modifying or degradative processes. • 4. Mix the lipids by vortexing for 2 minutes. • 5. […] Cooling the solution prevent excessive evaporation of ethanol or similar solvents upon opening. • 6. Meanwhile, thaw the RNA samples, including the latest SecNLuc control, by inserting the frozen tube in a room temperature aluminium block. • 7. Prepare for each LNP-formulation with identical mRNA component, an RNA master mix according to Table 1 below in a fresh tube. Use of a master mix allows more precise comparison of lipid formulations relative to each other. Split the master mix over a number of fresh tubes equal to the number of samples+controls. Each tube contains 375 μl of mRNA in 10 mM Citrate pH 4.0. • 8. Prepare for each LNP formulation with identical lipid composition a Lipid master mix according to Table 1 below in a fresh tube, exclude the lipid of interest. Use of a master mix allows more precise comparison of the novel ionizable lipid relative to each other. Split the master mix over a number of fresh tubes equal to the number of samples+controls. Each tube contains 65.5 μl of lipid master mix. • 9. Add the ionizable lipid of interest to the equally divide lipid master mix. Mix well by pipetting up and down. Label the tube according to the ionizable lipid used. • 10. Power on the L1 FM (L1 Formulation Machine uses 2 high-speed syringe pumps to mix lipids in organic solvents with mRNA in acidic aquous solution to generate well-defined LNPs. The microfluidic mixing chip involves a dean-type structure performing the high-efficiency mixing at a total flow rate (TFR) of around 12 ml/min at a 3:1 mixing ratio) and allow it to do a calibration of motor positions.
• 18. Fill a fresh syringe (C) through a blunt 18G stainless steel needle with the previously prepared RNA mixture of step 6. The volume should be approximately 85% of total formulation volume+25 μl (dead-volume). Make sure to remove all air bubbles by tapping. • 19. Fill a fresh syringe (D) through a blunt 18G stainless steel needle with the Lipid master mix. The volume should be approximately […] of total formulation volume+25 μl (dead-volume). Again, Make sure to remove all bubbles. • 20. Attach the syringes in the correct orientation, syringe A on the left and syringe B on the right • 21.

[2] = Encapsulation efficiency of loaded LNPs, RiboGreen RNA assay (Method A); format: physicochemical; conditions: encapsulation efficiency of mRNA-loaded LNP, Method A, RiboGreen
Description: as §1
• 1. Preparation of sample stock solutions: In the top row of the 96-well plate (Row A in the plate), add 297 μL of TE buffer pH 7.4 (see Table 1) to a single well for each sample plus a single well for a PBS blank using a multichannel pipette.
• 2. Add 3 μL of sample (at 0.5 mg/ml) to these wells for a final volume of 300 μL. Add 3 μL of PBS to the blank well. Pipette to mix. This is your stock solution for each sample. The final RNA concentration of these stock solutions should be approximately 4-7 μg/mL. • 3. mRNA-LNP sample setup: • a. Add 50 μL of TE buffer pH 7.5 to the two wells directly below each sample (Rows B and C in the plate). • b. Add 50 μL of sample stock solution from Row A into the wells in Rows B and C (this assay is run in duplicate. All liquid handling should be done using a multichannel pipette). • c. Add 50 μL of Triton buffer to the wells in Rows D and E (in the plate) below each sample. • d. Add 50 μL of sample stock solution from Row A into the wells in Rows D and E. • 4. RiboGreen RNA standard curve setup: Dilute the RNA standard to produce an RNA stock at a final concentration of 20 μg/mL in TE buffer pH 7.4. The final volume should be 150 μL. Set up a standard curve (in duplicate) as using the RNA stock (20 μg/mL siRNA), TE buffer pH 7.5, and Triton X-100 buffer according the Table 2 and Table 3 below.
• 5. Once samples and standard curve are plated, incubate the plate at 37° C. for 10 min to lyse mRNA-LNP in the presence of Triton X-100 buffer. • 6. Meanwhile, prepare RiboGreen Solution: Sum the total number of sample wells and standard curve wells. Add three to this number, and multiply the total by 100. This is the total volume, in μL, of RiboGreen Solution needed for this assay. In a 15 mL RNAse-free Falcon tube, dilute the RiboGreen Reagent 1:100 into TE buffer pH 7.5 to the total volume calculated. • 7. Addition of RiboGreen Solution and sample readings: Remove a 96-well plate from 37° C. incubator; let it cool to room temperature as RiboGreen binding is somewhat temperature dependent. Add 100 μL of RiboGreen Solution to each well. Pop any air bubbles with a needle. Read using fluorescent plate reader (excitation=480, emission=525). • 8. Sample analysis: Use the data generated by the RiboGreen standard curve to calculate the concentration of mRNA. Transfection Efficiency with Luciferase-mRNA (Method A)

| SMILES | PDI [1] | Size (nm) [1] [nm] | Zeta potential (mV) [1] [mV] | EE (%) [2] [%] |
| --- | --- | --- | --- | --- |
| CCCCCCCCC(CCCCCC)C(=O)OCCCCCCN(CCCCO)CCCCCCOC(=O)C(CCCCCC)CCCCCCCC (stereo not drawn) [ALC-0315, reference compound] | 0.007 | 131.9 | −12.32 | 94 |
| CCCCC/C=C\C/C=C\CCCCCCCCOC(CCCCCN(CCO)CCO)O[Si](C)(C)OCCCCCCCC/C=C\C/C=C\CCCCC (stereo not drawn) [Example 39, (21Z,24Z)-3-(2-hydroxyethyl)-11,11-dimethyl-9-(((9Z,12Z)-octadeca-9,12-dien-1-yl)oxy)-10,12-dioxa-3-aza-11-silatriaconta-21,24-dien-1-ol] | 0.072 | 170.4 | −9.414 | 87 |
| CCCCC/C=C\C/C=C\CCCCCCCCO[Si](C)(C)OC(CCCCCCC/C=C\C/C=C\CCCCC)OCCCCCCN(CCO)CCO (stereo not drawn) [Example 40, (23Z,26Z)-11-((8Z,11Z)-heptadeca-8,11-dien-1-yl)-3-(2-hydroxyethyl)-13,13-dimethyl-10,12,14-trioxa-3-aza-13-siladotriaconta-23,26-dien-1-ol] | 0.020 | 152.7 | −8.912 | 87 |
| CCCCCCCC/C=C\CCCCCCCCOC(CCCCCCCCCCCCCCC)O[Si](C)(C)OCCCCCCN(CCO)CCO (stereo not drawn) [Example 41, (Z)-3-(2-hydroxyethyl)-11,11-dimethyl-13-pentadecyl-10,12,14-trioxa-3-aza-11-siladotriacont-23-en-1-ol] | 0.031 | 144.2 | −8.54 | 78 |
| CCCCCCCC/C=C\CCCCCCCC(OCCCCCCCCCCCCCCCC)O[Si](C)(C)OCCCCCCN(CCO)CCO (stereo not drawn) [Example 42, (Z)-13-(heptadec-8-en-1-yl)-3-(2-hydroxyethyl)-11,11-dimethyl-10,12,14-trioxa-3-aza-11-silatriacontan-1-ol] | 0.059 | 129.0 | −8.408 | 87 |
| CCCCC/C=C\C/C=C\CCCCCCCCOC(CCCCCCCCCCCCCCC)O[Si](C)(C)OCCCCCCN(CCO)CCO (stereo not drawn) [Example 43, (23Z,26Z)-3-(2-hydroxyethyl)-11,11-dimethyl-13-pentadecyl-10,12,14-trioxa-3-aza-11-siladotriaconta-23,26-dien-1-ol] | 0.006 | 144.9 | −7.944 | 83 |
| CCCCC/C=C\C/C=C\CCCCCCCC(OCCCCCCCCCCCCCCCC)O[Si](C)(C)OCCCCCCN(CCO)CCO (stereo not drawn) [Example 44, 13-((8Z,11Z)-heptadeca-8,11-dien-1-yl)-3-(2-hydroxyethyl)-11,11-dimethyl-10,12,14-trioxa-3-aza-11-silatriacontan-1-ol] | 0.083 | 131.2 | −8.273 | 82 |
| CCCCC/C=C\C/C=C\CCCCCCCC(OCCCCCCCC/C=C\CCCCCCCC)O[Si](C)(C)OCCCCCCN(CCO)CCO (stereo not drawn) [Example 45, (Z)-13-((8Z,11Z)-heptadeca-8,11-dien-1-yl)-3-(2-hydroxyethyl)-11,11-dimethyl-10,12,14-trioxa-3-aza-11-siladotriacont-23-en-1-ol] | 0.043 | 136.8 | −8.85 | 82 |
| CCCCC/C=C\C/C=C\CCCCCCCCOC(CCCCCCC/C=C\CCCCCCCC)O[Si](C)(C)OCCCCCCN(CCO)CCO (stereo not drawn) [Example 46, (23Z,26Z)-13-((Z)-heptadec-8-en-1-yl)-3-(2-hydroxyethyl)-11,11-dimethyl-10,12,14-trioxa-3-aza-11-siladotriaconta-23,26-dien-1-ol] | 0.095 | 129.4 | −7.772 | 81 |
| CCCCCCCC/C=C\CCCCCCCCOC(CCCCCCC/C=C\CCCCCCCC)O[Si](C)(C)OCCCCCCN(CCO)CCO (stereo not drawn) [Example 47, (Z)-13-((Z)-heptadec-8-en-1-yl)-3-(2-hydroxyethyl)-11,11-dimethyl-10,12,14-trioxa-3-aza-11-siladotriacont-23-en-1-ol] | 0.014 | 125.0 | −8.469 | 88 |
| CCCCC/C=C\C/C=C\CCCCCCCCOC(CCCCCCC/C=C\C/C=C\CCCCC)O[Si](C)(C)OCCCCCCN(CCO)CCO (stereo not drawn) [Example 48, (23Z,26Z)-13-((8Z,11Z)-heptadeca-8,11-dien-1-yl)-3-(2-hydroxyethyl)-11,11-dimethyl-10,12,14-trioxa-3-aza-11-siladotriaconta-23,26-dien-1-ol] | 0.052 | 149.6 | −7.501 | 85 |
| CCCCCCCCCCCCCCCCOC(CCCCCCCCCCCCCCC)O[Si](C)(C)OCCCCCCN(CCO)CCO (stereo not drawn) [Example 49, 3-(2-hydroxyethyl)-11,11-dimethyl-13-pentadecyl-10,12,14-trioxa-3-aza-11-silatriacontan-1-ol] | 0.396 | 171.9 | −12.77 | 84 |
